Patent publication US12357668B2, “Anticancer activity of Buddleja saligna compositions” (University of Pretoria, priority 2019, dated 2025)
Values after ≈ are worked out from the molar mass of the structure shown. Numbered stars: 1 amine (or outer) side, 2 acyl side, 3 side chain; on linkers, the order of the positions; unused ones are H or OH. Bridge positions count the residues as written; N and C are the ends. Square brackets hold non-standard residues; d marks the D form. Peptide text beside a SMILES is read from it. I, II: the chains in the order shown. Actinocin(9to1) = Cc1c2oc3c(C)ccc(C(=O)[*:1])c3nc-2c(C(=O)[*:2])c(N)c1=O; NMeV = CN[C@H](C(=O)O)C(C)C; Sar = CNCC(=O)O

Legend:
[1] = system: HaCat (human keratinocytes) cells; experiment: XTT antiproliferative assay, human keratinocytes; format: cell-based; conditions: 72 h exposure
Method: The cell lines were maintained in culture flasks containing Dulbecco's modified Eagle's medium (DMEM) supplemented with 10%, heat-inactivated fetal bovine serum (FBS) and 100 U/ml penicillin, 100 μg/ml streptomycin and 250 μg/ml fungizone at 37° C. and 5%, CO2. Cells were sub-cultured once an 80%, confluent monolayer had formed using trypsin-EDTA (0.25%, trypsin containing 0.01%, EDTA).
To investigate the antiproliferative potential of B. saligna and DT-BS-01, the XTT assay was performed. Antiproliferative activity was measured using the method as described by Berrington and Lall (2012) using the XTT Cell Proliferation Kit II. […] Thereafter, 50 μl XTT (0.3 mg/ml) was added to the cells and incubated for 2 h where after the absorbance was measured at 490 nm (reference wavelength of 690 nm) using a BIO-TEK power-wave XS plate reader (A.D.P, Weltevreden Park, South Africa). […] The samples were tested in triplicate and the percentage cell viability was calculated using the following equation.
Where Abscontrol is the absorbance of XTT+vehicle control and Absample is the absorbance of (XTT+sample OR positive control)−(blank values of corresponding sample). The fifty percent inhibitory concentrations (IC50) were calculated from the % cell viability using the GraphPad Prism 4 software. […]

[2] = system: UCT-MEL-1 (human pigmented melanoma) cells; experiment: XTT antiproliferative assay, human melanoma cells; format: cell-based; conditions: HaCat versus UCT-MEL-1 IC50
Method: To investigate the antiproliferative potential of B. saligna and DT-BS-01, the XTT assay was performed. Antiproliferative activity was measured using the method as described by Berrington and Lall (2012) using the XTT Cell Proliferation Kit II. Cells were seeded at a concentration of 1.0×10^6 cells/ml in 96-well plates (100 μl) and allowed to adhere for 24 h. The B. saligna extract and DT-BS-01 were prepared at stock concentrations of 20 mg/ml, serially diluted and added to the 96-well plates at final concentrations ranging from 1.56-200 μg/ml. […] Cells were incubated for a further 72 h with the respective samples and controls. […] Blank plates were included which were prepared in the same manner as mentioned above, without the additional of cell, to allow for colour compensation of the samples. The samples were tested in triplicate and the percentage cell viability was calculated using the following equation. […] Where Abscontrol is the absorbance of XTT+vehicle control and Absample is the absorbance of (XTT+sample OR positive control)-(blank values of corresponding sample). […] The XTT colorimetric assay is based on the ability of viable metabolically active cells to convert a yellow tetrazolium salt to an orange formazan dye. […]

[3] = system: UCT-MEL-1 cells; experiment: Light microscopy (haematoxylin and eosin staining), cell morphology; format: cell-based, human; conditions: 0.025 μg/ml, 48 h
Method: (§1) One of the hallmarks of cancer cells is their ability to evade apoptosis, therefore providing a suitable target for the destruction of cancer cells. The effect of B. saligna and DT-BS-01 on the morphology of UCT-MEL-1 and HaCat cells was determined using light microscopy. Light microscopy (haematoxylin and eosin staining) was used to determine the qualitative effect B. saligna (30 and 60 μg/ml) and DT-BS-01 (5 and 20 μg/ml) on the morphology of UCT-MEL-1 and HaCat cells. […] Exponentially growing UCT-MEL-1 and HaCat cells were seeded at 1.0×10^5 cells per well in a 6-well plate and incubated for 24 h at 37° C. at 5% CO2 to allow for cell adherence. […] Cells were stained (in the 6-well plate) as described by Berrington & Lall (2012). After staining, sterile PBS was added to all the wells and immediately analysed for morphological changes using a light microscope (Zeiss Primovert).
(§2) Light microscopy was performed in order to determine whether cell death, induced by B. saligna and the DT-BS-01 was mediated through apoptosis (FIG. 2 and FIG. 3). Apoptosis is described as a programmed cell death in which biochemical and morphological changes occur within the cells. […]

[4] = system: HaCat cells; experiment: as above; format: cell-based, human; conditions: 0.025 μg/ml, 48 h
Method: as §1, §2

[5] = system: UCT-MEL-1 cells; experiment: Flow cytometry apoptosis detection (Annexin V / 7-AAD); format: cell-based, human; conditions: 0.025 μg/ml, 48 h
From the text: (§3) Phosphatidylserine (PS) is a lipid, which is present in the inner leaflet of the plasma membrane. The early stages of apoptosis are characterized by an asymmetric membrane due to the translocation of the PS lipid from the inner membrane leaflet to the outer leaflet. Once exposed to the outer cellular environment, Annexin V, which has a high affinity for PS, is able to bind to it. After the early stages of apoptosis have taken place, the plasma membrane integrity starts to disintegrate thereby allowing the uptake of 7-AAD into the cell, which is associated with late apoptosis or necrosis. […] Using Annexin V and 7-AAD staining can therefore, not distinguish between late apoptosis or necrosis, however can characterize early apoptosis. The degree of apoptosis was thus measured using the Annexin V-FITC apoptosis detection kit. […] Actinomycin D (0.025 μg/ml) was used as a positive control for apoptosis to occur. Other controls included a medium (untreated) and 0.25% DMSO vehicle control. […] An additional 400 μl binding buffer was added to each culture tube and the fluorescence was measured using an Accuri C6 flow cytometer (BD Biosciences, San Jose, CA, USA). Data from at least 10,000 cells were analyzed using the BD Accuri C6 software.

[6] = system: HaCat cells; experiment: as above; format: cell-based, human; conditions: 0.025 μg/ml, 48 h
From the text: as §3

[7] = Nitric oxide scavenging activity (Griess reaction)
Method: Briefly, 90 μl of distilled water was added to the top row of a 96-well microtitre plate and 50 μl to the rest of the wells in the plate. […] Ethanol was used as the negative control. To each well 50 μl sodium nitroprusside (10 mM) was added and the plates were incubated at room temperature for 90 min. Thereafter, 100 μl Griess reagent was added to all the wells, except for the blank plates where distilled water was added. […] All samples were tested in triplicate. The percentage inhibition of the samples was calculated using the below equation.
Where Abscontrol is the absorbance of NO radical+ethanol control; Absample is the absorbance of (NO radical+sample OR positive control)−(blank values of corresponding sample). The IC50 values for each sample were calculated using GraphPad Prism 4 software.

[8] = system: SK-MEL-2 melanoma; conditions: SK-MEL-2 CAM model; Caunii et al., 2017; cited from earlier work
[9] = in vitro; format: cell-based; conditions: human
Method: (§4) Exponentially growing UCT-MEL-1 and HaCat cells were seeded at a concentration of 1.0×10^5 cells/well in a 24-well plate with complete medium to allow for cell adherence. After 24 h, the medium was removed and replaced with fresh complete medium. Stock concentrations of the B. saligna extract and DT-BS-01 were prepared at 1 mg/ml. The cells were treated with final concentrations of the B. saligna at 30 and 60 μg/ml; and DT-BS-01 at 5 and 20 μg/ml. Controls included a 0.15% DMSO vehicle control, cells grown in medium only and cells exposed to the positive control, ursolic acid at final concentrations of 6 μg/ml. After 6 h of treatment, the plates were centrifuged at 980 rpm for 10 min and the supernatant collected for quantification of VEGF using an ELISA kit (ThermoFisher Scientific, Johannesburg, South Africa) (Thermo Fisher, 2017). The cells viability was further determined using XTT at a final concentration of 0.3 mg/ml. The quantification of VEGF was performed according to the manufacturer's protocol (Novex® Cat #KHG0111) using a VEGF standard curve.
The levels of VEGF secreted by UCT-MEL-1 and HaCat cells were determined after 6 h incubation with B. saligna and DT-BS-01. […] The HaCat cell viability was determined after treatment with the various samples and controls in order to determine whether inhibition of VEGF could have been due to a decrease in cell viability. […]

[10] = system: vascular endothelial growth factor (VEGF); experiment: Quantification of in vitro VEGF in HaCat cells (ELISA); format: cell-based; conditions: Homo sapiens, 6 μg/ml, 6 h, read-out: inhibition of VEGF production
Method: as §4

In the case of `Cc1c2oc3c(C)ccc(C(=O)N[C@@H]4C(=O)N[C@H](C(C)C)C(=O)N5CCC[C@H]5C(=O)N(C)CC(=O)N(C)[C@@H](C(C)C)C(=O)O[C@@H]4C)c3nc-2c(C(=O)N[C@@H]2C(=O)N[C@H](C(C)C)C(=O)N3CCC[C@H]3C(=O)N(C)CC(=O)N(C)[C@@H](C(C)C)C(=O)O[C@@H]2C)c(N)c1=O` [Actinomycin D] (I: T[dV]P[Sar][NMeV] / II: T[dV]P[Sar][NMeV]; ester I:1-I:C, II:1-II:C; linker I:N-II:N via Actinocin(9to1)), the “IC50 on HaCat cells” value [1] is reported as 0.0092 ± 6.88e-05 µg/mL (≈ 7.33 nM), the “selectivity index (SI)” value [2] is reported as 3.83 and the “cell morphology, UCT-MEL-1” value [3] is reported as “displayed characteristic signs of apoptosis”. The “cell morphology, HaCat” value [4] was “displayed characteristic signs of apoptosis”, the “cells in late apoptosis, UCT-MEL-1” value [5] was 99.2% and the “cells in late apoptosis, HaCat” value [6] was 90.6%.
With `O=C1O[C@H]([C@@H](O)CO)C(O)=C1O` [ascorbic acid] the “NO radical scavenging activity” value ([7]; 500 μg/ml) was 75.70±0.15% and the “NO IC50 ± SD” value ([7]; NO radical scavenging) was 62.46 ± 0.46 µg/mL.
In the case of `CC1(C)CC[C@]2(C(=O)O)CC[C@]3(C)C(=CC[C@@H]4[C@@]5(C)CC[C@H](O)C(C)(C)[C@@H]5CC[C@]43C)[C@@H]2C1` [oleanolic acid], the “angiogenic potential / capillary density in CAM” value [8] is given as “able to reduce the angiogenic potential”.
For `C[C@H]1[C@H](C)CC[C@]2(C(=O)O)CC[C@]3(C)C(=CC[C@@H]4[C@@]5(C)CC[C@H](O)C(C)(C)[C@@H]5CC[C@]43C)[C@H]12` [ursolic acid], the viability at 6 h, 6 μg/ml [9] is given as 96 ± 3.62%, the inhibition at 6 µg/mL [10] is given as 16 ± 0.93% and the “angiogenic potential / capillary density in CAM” value [8] is given as “did not inhibit the density of the capillaries”.
